# Tests used:
# [1] = Concentration in blood plasma of rabbits during vaginal administration (vaginal suppositories 0.1 g); format: in vivo
# Description: Concentration in blood plasma of the experimental animals during vaginal administration of the inventive substance.
# The results of measuring the concentration of the substance in blood plasma of rabbits during vaginal administration in the form of “vaginal suppositories 0.1 g” are shown on the provided diagram in the form of averaged pharmacokinetic curves (see FIG. 1). After inserting the suppository, the substance began to enter the general blood circulation after approximately 15 minutes; after 1 hour the concentration of the substance in the blood reached its maximum (approximately 120 μg/ml); then it was gradually excreted from the organism, and 24 hours after its administration the detected presence of the substance in blood plasma was minimal (approximately 20 μg/ml). The dispersion of individual values was moderate: coefficient of variation CV amounted to 13-22%.
# endogenous interferon [2] = assay: Interferon inducing activity in vivo during intragastric administration to mice; settings: 1000 μg/mouse, background 7-10 units
# endogenous interferon [3] = assay: Interferon inducing activity in vivo during oral administration to mice; settings: 5.0 mg/mouse, background 7-10 units
smiles,measurement,setting,value
"COC(=O)c1cccc(Nc2cc(=O)[nH]c(=O)[nH]2)c1 [The inventive substance, monomer, 6-(3-methoxycarbonylphenyl) amino-2,4 (1H, 3H)-pyrimidinedione]",Time at which concentration in the blood reached its maximum,[1],1 h
same,Time until the substance began to enter the general blood circulation,[1],approximately 15 minutes
same,Maximum concentration of the substance in the blood,[1]; after 1 hour,approximately 120 μg/ml
same,concentration at 24 h,"[1]; rabbit, plasma, other: vaginal, 24 hours, read-out: Concentration of the substance in blood plasma 24 hours after administration",~20000 ng/mL
same,"Interferon inducing activity, 2 hours",endogenous interferon [2]; 2 hours,30 IU
same,"Interferon inducing activity, 4 hours",endogenous interferon [2]; 4 hours,10 IU
same,"Interferon inducing activity, 6 hours",endogenous interferon [2]; 6 hours,160 IU
same,"Interferon inducing activity, 8 hours",endogenous interferon [2]; 8 hours,25-30 IU
same,"Interferon inducing activity, 24 hours",endogenous interferon [2]; 24 hours,30 IU
same,"Interferon inducing activity, 2 hours",endogenous interferon [3]; 2 hours,18 IU
same,"Interferon inducing activity, 4 hours",endogenous interferon [3]; 4 hours,120 IU
same,"Interferon inducing activity, 6 hours",endogenous interferon [3]; 6 hours,20 IU
same,"Interferon inducing activity, 8 hours",endogenous interferon [3]; 8 hours,40 IU
same,"Interferon inducing activity, 24 hours",endogenous interferon [3]; 24 hours,100 IU
